Source: patent US7652142B2, “Bipiperidinyl derivatives useful as inhibitors of chemokine receptors” (priority 2003, dated 2010)

System: HIV-1
Experiment: Luciferase Replication assay
Assay type: cell-based
Conditions: Human immunodeficiency virus 1, U87/CD4/CCR5, 72 h
Experimental: Luciferase Replication Assay:
Plasmids encoding the full length genome of HIV-1 pNL-4-Luc with the gp 120 V-3 loop replaced by the Bgl II fragment of HIV-1 ADA, YU-2 or HxB (ADA-Luc-FL, YU-2-Luc-FL and HxB-Luc-FL) were obtained from Dr. Susan Pontow (Washington University, St. Louis Mo.). Replication-competent luciferase reporter virus stocks were generated by transfection of plasmids into 293T cells using Superfect (Qiagen) or Mirus transfection reagents. Viral stocks were collected 48 hours following transfection and titered for luciferase production on U-87-CCR5 or CXCR4 cells. U87-CD4-CCR5 cells ([…]) were plated in 96-well cell culture plates and incubated overnight. Media was removed and replaced with 50 μl of fresh culture media (DMEM, 10% FCS) and 50 μl of compound diluted in culture medium. Cells were incubated with compound at 37° C. for 1 hour. The resultant supernatant was removed and replaced with 20 μl of media containing compound and infected with an equal volume of diluted or undiluted virus stock at 37° C. for 3-4 hours. The cells were washed once with DMEM, and 200 μl of media containing compound was added. The cultures were incubated for 3 days, the cells lysed in luciferase lysis buffer (Promega, Madison, Wis.) and transferred to Immulon plates (Dynex Technologies, Chantilly Va.). An equal volume of luciferase substrate (Promega, Madison Wis.) was added to lysates and the plates read immediately in a Wallac Luminometer. Fifty and ninety percent inhibitory concentrations were determined using GraphPad PRISM software.

Compound	IC50 [nM]
Cc1ncnc(C)c1C(=O)N1CCC(C)(N2CCC(N(Cc3ccccc3)c3ccc(CC(=O)N4CCCC4)cc3)CC2)CC1	0.13
CCNC(=O)Nc1cc(C)c(C(=O)N2CCC(C)(N3CCC(N(Cc4ccccc4)c4ccc(CC(=O)N5CCOCC5)cc4)CC3)CC2)c(C)c1	0.19
Cc1ncnc(C)c1C(=O)N1CCC(C)(N2CCC(N(Cc3ccccc3)c3ccc(CC#N)cc3)CC2)CC1	0.14
Cc1ncnc(C)c1C(=O)N1CCC(C)(N2CCC(N(Cc3ccccc3)c3ccc(CN4CC[C@H](NS(=O)(=O)C5CC5)C4=O)cc3)CC2)CC1	0.14
Cc1cc(O)cc(C)c1C(=O)N1CCC(C)(N2CCC(N(Cc3ccccc3)c3ccc(C(C)(C)C(=O)N4CCOCC4)cc3)CC2)CC1	< 0.1
Cc1ncnc(C)c1C(=O)N1CCC(C)(N2CCC(N(Cc3ccccc3)c3ccc(C(C)(C)C(=O)N4CCCCC4)cc3)CC2)CC1	0.18
Cc1cc(N)cc(C)c1C(=O)N1CCC(C)(N2CCC(N(Cc3ccccc3)c3ccc(C(C)(C)C(=O)N4CCOCC4)cc3)CC2)CC1	0.13
CCN(CC)C(=O)[C@@H](O)c1ccc(N(Cc2ccccc2)C2CCN(C3(C)CCN(C(=O)c4c(C)ncnc4C)CC3)CC2)cc1	0.16
Cc1ncnc(C)c1C(=O)N1CCC(C)(N2CCC(N(Cc3ccccc3)c3ccc(S(=O)(=O)CCO)cc3)CC2)CC1	0.17
Cc1ncnc(C)c1C(=O)N1CCC(C)(N2CCC(N(Cc3ccccc3)c3ccc(C(C)(C)C(=O)N4CCOCC4)cc3)CC2)CC1	0.14
Cc1ncnc(C)c1C(=O)N1CCC(C)(N2CCC(N(Cc3ccccc3)c3ccn(C)c(=O)c3)CC2)CC1	0.15
Cc1ncnc(C)c1C(=O)N1CCC(C)(N2CCC(N(Cc3ccccc3)c3ccc(CNC(=O)[C@H](O)c4ccccc4)cc3)CC2)CC1	0.19
Cc1cc(NS(C)(=O)=O)cc(C)c1C(=O)N1CCC(C)(N2CCC(N(Cc3ccccc3)c3ccc(C(C)(C)C(=O)N4CCOCC4)cc3)CC2)CC1	0.16
